Measured values from a compilation of properties of binary mixtures (doi:10.1021/acs.jced.1c00023).

Assay: xn = mol fraction of the nth substance listed
Conditions: 101.3 kPa

Work on `Oc1cccc(O)c1O` + CCCCCCCCCCCC[N+](C)(C)C.[Br-] yielded an electrical conductivity (293.15 K, x2 = 0.333) of 0.0047 S/m, a speed of sound (293.15 K, x2 = 0.333) of 1614.6 m/s and a viscosity (293.15 K, x2 = 0.333) of 7500 mPa·s. The electrical conductivity (298.15 K, x2 = 0.333) was 0.0082 S/m, the speed of sound (298.15 K, x2 = 0.333) was 1592.1 m/s and the viscosity (298.15 K, x2 = 0.333) was 5650 mPa·s. The electrical conductivity (303.15 K, x2 = 0.333) was 0.0139 S/m, the speed of sound (303.15 K, x2 = 0.333) was 1572.5 m/s and the viscosity (303.15 K, x2 = 0.333) was 3900 mPa·s. The electrical conductivity (308.15 K, x2 = 0.333) was 0.0234 S/m, the speed of sound (308.15 K, x2 = 0.333) was 1554.9 m/s and the viscosity (308.15 K, x2 = 0.333) was 2300 mPa·s. For the same compound, the electrical conductivity (313.15 K, x2 = 0.333) was 0.0364 S/m, the speed of sound (313.15 K, x2 = 0.333) was 1538.8 m/s and the viscosity (313.15 K, x2 = 0.333) was 1500 mPa·s. It also gave an electrical conductivity (318.15 K, x2 = 0.333) of 0.0539 S/m, a speed of sound (318.15 K, x2 = 0.333) of 1523.4 m/s and a viscosity (318.15 K, x2 = 0.333) of 1000 mPa·s. The electrical conductivity (323.15 K, x2 = 0.333) was 0.0773 S/m, the speed of sound (323.15 K, x2 = 0.333) was 1508.7 m/s and the viscosity (323.15 K, x2 = 0.333) was 750 mPa·s. It also gave an electrical conductivity (328.15 K, x2 = 0.333) of 0.105 S/m, a speed of sound (328.15 K, x2 = 0.333) of 1494.3 m/s and a viscosity (328.15 K, x2 = 0.333) of 550 mPa·s.

`Oc1cccc(O)c1O` + CCC[N+](CCC)(CCC)CCC.[Br-] gave an electrical conductivity (298.15 K, x2 = 0.5) of 0.0031 S/m, a speed of sound (298.15 K, x2 = 0.5) of 1855.2 m/s and a viscosity (298.15 K, x2 = 0.5) of 25000 mPa·s. It also gave an electrical conductivity (318.15 K, x2 = 0.5) of 0.0259 S/m, a speed of sound (318.15 K, x2 = 0.5) of 1704.1 m/s and a viscosity (318.15 K, x2 = 0.5) of 4800 mPa·s. It also gave an electrical conductivity (323.15 K, x2 = 0.5) of 0.04 S/m, a speed of sound (323.15 K, x2 = 0.5) of 1674.1 m/s and a viscosity (323.15 K, x2 = 0.5) of 3500 mPa·s. For the same compound, the electrical conductivity (328.15 K, x2 = 0.5) was 0.0703 S/m, the speed of sound (328.15 K, x2 = 0.5) was 1652.9 m/s and the viscosity (328.15 K, x2 = 0.5) was 2550 mPa·s.
